# Measurements reported in patent US12528783B2, “PqsR inverse agonists” (priority 2020, dated 2026).
# Key:
# [1] = test system: signal molecule production (HHQ, PQS); settings: at 15 μM; cited from earlier work
# [2] = test system: virulence factor pyocyanin production; settings: in cellulo; read-out: inhibition of virulence factor pyocyanin production IC50; cited from earlier work
# PqsR = target: T1, PqsR (Pseudomonas aeruginosa, UniProt Q9I4X0); test: PqsR inverse agonistic activity, reporter gene assay in E. coli; assay type: cell-based
# T1 construct: expressed in transfected cells; host or cells: Escherichia coli DH5a carrying pEAL08-2
# T1 sequence (Q9I4X0 whole entry): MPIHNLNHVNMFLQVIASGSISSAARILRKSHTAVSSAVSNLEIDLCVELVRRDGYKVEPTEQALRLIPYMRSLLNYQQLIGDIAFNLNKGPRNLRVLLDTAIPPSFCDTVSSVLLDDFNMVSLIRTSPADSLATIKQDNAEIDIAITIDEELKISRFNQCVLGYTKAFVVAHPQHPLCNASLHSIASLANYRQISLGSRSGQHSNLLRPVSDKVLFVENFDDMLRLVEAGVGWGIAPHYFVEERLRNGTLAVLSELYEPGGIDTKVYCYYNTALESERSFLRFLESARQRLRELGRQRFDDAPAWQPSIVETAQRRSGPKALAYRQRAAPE
# Procedure: Inhibition of pqsR-dependent gene expression of test compounds was determined in an E. coli based-galactosidase reporter gene assay. Escherichia coli DH5a was transfected with pEAL08-2 plasmid encoding pqsR under control of promoter tac and β-galactosidase reporter gene lacZ under control of promoter pqsA. Antagonistic effects of compounds were evaluated in the presence of/in competition to 50 nM PQS. A positive control was used to ensure the reliability of individual assays. First, PQS was diluted in methanol and added to the wells of a glass coated 96-deep-well plate, and the solvent was evaporated. Then, compounds were added in 5 μL DMSO to final concentrations of 0.001-10 μM. Overnight cultures of E. coli DH5a×pEAL08-2 were diluted 1:100 in LB medium with ampicillin (50 μg/ml) and incubated at 37° C. with shaking until it reached an OD600 of 0.2. Finally, 995 μL of culture was added to each well and the β-galactosidase activity was determined by ortho-nitrophenyl-β-galactoside conversion in permeabilized cells after a 2.5 h incubation period (37° C., 180 rpm). OD600, OD420, and OD550 were measured using POLARstar Omega (BMG Labtech, Ortenberg, Germany), and the activity was expressed as ratio of the slope of B-galactosidase activity between basal control (no PQS) and solvent control. IC50 values of antagonists were determined by variation of the concentration of the test compounds.
# [3] = test system: P. aeruginosa pyocyanin production; test: Pyocyanin assay; assay type: cell-based; settings: Pseudomonas aeruginosa, PA14, 16 h, read-out: IC50-value towards pyocyanin production, PA14 in PPGAS medium, 16 h
# Procedure: Inhibition of P. aeruginosa pyocyanin production by compounds was determined photometrically as described before. In short, an overnight culture of PA14 in PPGAS medium was washed, diluted in medium to a start OD600 of 0.02, and incubated for 16 h (37° C., 200 rpm, relative humidity 75%) in the presence of test compounds. Then, cultures were extracted with chloroform and re-extracted with 0.2 M HCl. Protonated red colored pyocyanin was determined by measuring OD520 and normalizing to OD600.
# [4] = Kinetic Turbidimetric Aqueous Solubility; assay type: physicochemical; settings: aqueous buffer, kinetic from dmso stock, PBS buffer, room temperature
# Procedure: Kinetic Turbidimetric Aqueous Solubility at room temperature for 5 min. Test compound was diluted in PBS buffer to give a range of concentrations (typically 0.4, 2, 4, 20, 40, 100, and 200 μM, final DMSO concentration 2%) and incubated at room temperature for 5 min. Absorbance was measured at a wavelength of 620 nm and the solubility was estimated from the concentration of test compound that produces an increase in absorbance above the vehicle control (i.e., […]). Data was analyzed by fitting a four parameter sigmoidal function to the measured and normalized absorbances and AUC calculation providing access to Log S (decadic logarithm of the solubility).
# [5] = Metabolic stability in mouse liver microsomes (MLM); assay type: in vitro ADME; settings: 1 μM compound, 0.5 mg/mL MLM, 1 mM NADPH, 37° C., read-out: half-life (t1/2) towards MLM
# Procedure: For the evaluation of phase I metabolic stability, the compound (1 μM) was incubated with 0.5 mg/mL MLM (Corning) and 1 mM NADPH at 37° C. for 0, 5, 10, 15 and 30 min. The metabolic stability of Verapamil, Diphenhydramine and Benzydamine (1 μM each) were determined in parallel to confirm the enzymatic activity of the MLM. The incubation was stopped by addition of 2 volumes of acetonitrile containing internal standard (1 μM Leucine Enkephaline). Samples were centrifuged (15 min, 3,500 rpm). Concentration of the remaining test compound at the different time points was analyzed by HPLC-MS/MS and used to determine half-life (t1/2).
# [6] = test system: production of signal molecules HHQ and PQS; settings: QS inhibitors targeting PqsA; read-out: IC50, reduction of production of signal molecules HHQ and PQS; cited from earlier work
SMILES,reduction of HHQ production [1],reduction of PQS production [1],IC50 [2],IC50 (PqsR),IC50 [3],solubility at 5 min [4],half-life at 1 μM [5],IC50 [6]
"CCCCCCCc1[nH]c2ccc([N+](=O)[O-])cc2c(=O)c1C(N)=O [2-heptyl-6-nitro-4-oxo-1,4-dihydroquinoline-3-carboxamide]",54%,37%,2000 nM,–,–,–,–,–
Fc1ccc(Nc2ccc3[nH]c(CSc4ccnc(C(F)(F)F)c4)nc3c2)c(F)c1 [Compound 45],–,–,–,≤ 50 nM,101 to 200 nM,> 25 µM,> 1 h,–
Nc1cccc(F)c1C(=O)O [Compound 6FABA],–,–,–,–,–,–,–,~100000 nM
FC(F)c1cccc(Nc2ccc3[nH]c(CSc4ccnc(C(F)(F)F)c4)nc3c2)c1 [Compound 37],–,–,–,≤ 50 nM,101 to 200 nM,> 10 µM,> 1 h,–
O=[N+]([O-])c1cc(-c2ncc(CNc3cc(Cl)nc(C(F)(F)F)c3)cn2)ccc1Cl [Compound 08],–,–,–,–,101 to 200 nM,> 10 µM,> 1 h,–
O=[N+]([O-])c1cccc(-c2ncc(CNc3cc(Cl)nc(C(F)(F)F)c3)cn2)c1 [Compound 09],–,–,–,–,201 to 500 nM,> 10 µM,0.517 to 1 h,–
NC(=O)c1cccc(Nc2ccc3[nH]c(CSc4ccnc(C(F)(F)F)c4)nc3c2)c1 [Compound 36],–,–,–,251 to 1000 nM,–,> 50 µM,0.517 to 1 h,–
